# Laboratory results published in patent US9914731B2, “Pyrazolo[1,5-a]pyridine derivatives and methods of their use” (Ignyta, Inc., priority 2013, dated 2018).
# Biological target: recombinant human baculovirus-expressed cMET (Homo sapiens (Human), UniProt P08581)
# Assay: c-MET kinase assay (HTRF KinEASE)
# Type: biochemical
# Conditions: average of two or more determinations; read-out: c-MET IC50
row,SMILES,IC50
1,"Cn1cnc(-c2cc(Oc3ccc(NC(=O)C4(C(=O)Nc5ccc(F)cc5)CC4)cc3F)c3ccnn3c2)c1 [Example 108, Cyclopropane-1,1-dicarboxylic acid{3-fluoro-4-[6-(1-methyl-1H-imidazol-4-yl)-pyrazolo[1,5-a]pyridin-4-yloxy]-phenyl}-amide(4-fluoro-phenyl)-amide]",< 10 nM
2,"CCn1cc(C(=O)Nc2ccc(Oc3cc(-c4cn(C)cn4)cn4nccc34)c(C)c2)c(=O)n(-c2ccc(F)cc2)c1=O [Example 109, 1-Ethyl-3-(4-fluoro-phenyl)-2,4-dioxo-1,2,3,4-tetrahydro-pyrimidine-5-carboxylic acid{3-methyl-4-[6-(1-methyl-1H-imidazol-4-yl)-pyrazolo[1,5-a]pyridin-4-yloxy]-phenyl}-amide]",< 10 nM
3,"CCOc1ccn(-c2ccc(F)cc2)c(=O)c1C(=O)Nc1ccc(Oc2cc(-c3cn(C)cn3)cn3nccc23)c(F)c1 [Example 112, 4-Ethoxy-1-(4-fluoro-phenyl)-2-oxo-1,2-dihydro-pyridine-3-carboxylic acid {3-fluoro-4-[6-(1-methyl-1H-imidazol-4-yl)-pyrazolo[1,5-a]pyridin-4-yloxy]-phenyl}-amide]",< 10 nM
4,"CCn1cc(C(=O)Nc2ccc(Oc3cc(-c4cn(C)cn4)cn4nccc34)nc2)c(=O)n(-c2ccc(F)cc2)c1=O [Example 115, 1-Ethyl-3-(4-fluoro-phenyl)-2,4-dioxo-1,2,3,4-tetrahydro-pyrimidine-5-carboxylic acid{6-[6-(1-methyl-1H-imidazol-4-yl)-pyrazolo[1,5-a]pyridin-4-yloxy]-pyridin-3-yl}-amide]",< 10 nM
5,"CC(C)n1cc(C(=O)Nc2ccc(Oc3cc(-c4cn(C)cn4)cn4nccc34)nc2)c(=O)n(-c2ccc(F)cc2)c1=O [Example 116, 3-(4-Fluoro-phenyl)-1-isopropyl-2,4-dioxo-1,2,3,4-tetrahydro-pyrimidine-5-carboxylic acid{6-[6-(1-methyl-1H-imidazol-4-yl)-pyrazolo[1,5-a]pyridin-4-yloxy]-pyridin-3-yl}-amide]",< 10 nM
6,CCn1cc(C(=O)Nc2ccc(Oc3cc(-c4cn(C)cn4)cn4nccc34)c(OCc3ccccc3)c2)c(=O)n(-c2ccc(F)cc2)c1=O [Example 119],10 to 100 nM
7,"CCn1cc(C(=O)Nc2ccc(Oc3cc(-c4cn(C)cn4)cn4nccc34)c(O)c2)c(=O)n(-c2ccc(F)cc2)c1=O [Example 120, 1-Ethyl-3-(4-fluoro-phenyl)-2,4-dioxo-1,2,3,4-tetrahydro-pyrimidine-5-carboxylic acid{3-hydroxy-4-[6-(1-methyl-1H-imidazol-4-yl)-pyrazolo[1,5-a]pyridin-4-yloxy]-phenyl}-amide]",10 to 100 nM
8,"CC(C)n1cc(C(=O)Nc2ccc(Oc3cc(-c4cn(C)cn4)cn4nccc34)c(OCc3ccccc3)c2)c(=O)n(-c2ccc(F)cc2)c1=O [Example 121, 3-(4-Fluoro-phenyl)-1-isopropyl-2,4-dioxo-1,2,3,4-tetrahydro-pyrimidine-5-carboxylic acid {3-benzyloxy-4-[6-(1-methyl-1H-imidazol-4-yl)-pyrazolo[1,5-a]pyridine-4-yloxy]-phenyl}-amide]",10 to 100 nM
9,"CC(C)n1cc(C(=O)Nc2ccc(Oc3cc(-c4cn(C)cn4)cn4nccc34)c(O)c2)c(=O)n(-c2ccc(F)cc2)c1=O [Example 122, 3-(4-Fluoro-phenyl)-1-isopropyl-2,4-dioxo-1,2,3,4-tetrahydro-pyrimidine-5-carboxylic acid{3-hydroxy-4-[6-(1-methyl-1H-imidazol-4-yl)-pyrazolo[1,5-a]pyridin-4-yloxy]-phenyl}-amide]",10 to 100 nM
10,"CCn1cc(C(=O)Nc2ccc(Oc3cc(-c4cn(C)cn4)cn4nccc34)c(C(F)(F)F)c2)c(=O)n(-c2ccc(F)cc2)c1=O [Example 125, 1-Ethyl-3-(4-fluoro-phenyl)-2,4-dioxo-1,2,3,4-tetrahydro-pyrimidine-5-carboxylic acid {4-[6-(1-methyl-1H-imidazol-4-yl)-pyrazolo[1,5-a]pyridin-4-yloxy]-3-trifluoromethyl-phenyl}-amide]",< 10 nM
11,"CC(C)n1cc(C(=O)Nc2ccc(Oc3cc(-c4cn(C)cn4)cn4nccc34)c(C(F)(F)F)c2)c(=O)n(-c2ccc(F)cc2)c1=O [Example 126, 3-(4-Fluoro-phenyl)-1-isopropyl-2,4-dioxo-1,2,3,4-tetrahydro-pyrimidine-5-carboxylic acid{4-[6-(1-methyl-1H-imidazol-4-yl)-pyrazolo[1,5-a]pyridin-4-yloxy]-3-trifluoromethyl-phenyl}-amide]",10 to 100 nM
12,"CCn1nc(C(=O)Nc2ccc(Oc3cc(-c4cn(C)cn4)cn4nccc34)cn2)c(=O)n(-c2ccc(F)cc2)c1=O [Example 130, 2-Ethyl-4-(4-fluoro-phenyl)-3,5-dioxo-2,3,4,5-tetrahydro-1,2,4-triazine-6-carboxylic acid{5-[6-(1-methyl-1H-imidazol-4-yl)-pyrazolo[1,5-a]pyridin-4-yloxy]-pyridin-2-yl}-amide]",< 10 nM
13,"CC(C)n1nc(C(=O)Nc2ccc(Oc3cc(-c4cn(C)cn4)cn4nccc34)cn2)c(=O)n(-c2ccc(F)cc2)c1=O [Example 131, 4-(4-Fluoro-phenyl)-2-isopropyl-3,5-dioxo-2,3,4,5-tetrahydro-1,2,4-triazine-6-carboxylic acid{5-[6-(1-methyl-1H-imidazol-4-yl)-pyrazolo[1,5-a]pyridin-4-yloxy]-pyridin-2-yl}-amide]",< 10 nM

# Now from value to compound:
row,IC50,SMILES
1,< 10 nM,"Cn1ccnc1-c1cc(Oc2ccc(NC(=O)c3cccn(-c4ccc(F)cc4)c3=O)cc2F)c2ccnn2c1 [Example 90, 1-(4-Fluoro-phenyl)-2-oxo-1,2-dihydro-pyridine-3-carboxylic acid{3-fluoro-4-[6-(1-methyl-1H-imidazol-2-yl)-pyrazolo[1,5-a]pyridin-4-yloxy]-phenyl}-amide]"
2,< 10 nM,"Cn1cnc(-c2cc(Oc3ccc(NC(=O)c4cn(CCO)c(=O)n(-c5ccc(F)cc5)c4=O)cc3F)c3ccnn3c2)c1 [Example 97, 3-(4-Fluoro-phenyl)-1-(2-hydroxy-ethyl)-2,4-dioxo-1,2,3,4-tetrahydro-pyrimidine-5-carboxylic acid{3-fluoro-4-[6-(1-methyl-1H-imidazol-4-yl)-pyrazolo[1,5-a]pyridin-4-yloxy]-phenyl}-amide]"
3,< 10 nM,"Cc1ccc(C(=O)Nc2ccc(Oc3cc(-c4ncco4)cn4nccc34)c(F)c2)c(=O)n1-c1ccc(F)cc1 [Example 98, 1-(4-Fluoro-phenyl)-6-methyl-2-oxo-1,2-dihydro-pyridine-3-carboxylic acid [3-fluoro-4-(6-oxazol-2-yl-pyrazolo[1,5-a]pyridin-4-yloxy)-phenyl]-amide]"
4,< 10 nM,"CCn1cc(C(=O)Nc2ccc(Oc3cc(-c4cncn4C)cn4nccc34)c(F)c2)c(=O)n(-c2ccc(F)cc2)c1=O [Example 100, 1-Ethyl-3-(4-fluoro-phenyl)-2,4-dioxo-1,2,3,4-tetrahydro-pyrimidine-5-carboxylic acid{3-fluoro-4-[6-(3-methyl-3H-imidazol-4-yl)-pyrazolo[1,5-a]pyridin-4-yloxy]-phenyl}-amide]"
5,< 10 nM,"O=C(Nc1ccc(Oc2cc(-c3cncs3)cn3nccc23)c(F)c1)c1cccn(-c2ccc(F)cc2)c1=O [Example 105, 1-(4-Fluoro-phenyl)-2-oxo-1,2-dihydro-pyridine-3-carboxylic acid[3-fluoro-4-(6-thiazol-5-yl-pyrazolo[1,5-a]pyridin-4-yloxy)-phenyl]-amide]"
6,< 10 nM,"CC(C)n1cc(C(=O)Nc2ccc(Oc3cc(-c4cscn4)cn4nccc34)c(F)c2)c(=O)n(-c2ccc(F)cc2)c1=O [Example 106, 3-(4-Fluoro-phenyl)-1-isopropyl-2,4-dioxo-1,2,3,4-tetrahydro-pyrimidine-5-carboxylic acid[3-fluoro-4-(6-thiazol-4-yl-pyrazolo[1,5-a]pyridin-4-yloxy)-phenyl]-amide]"
7,< 10 nM,"CCOc1ccn(-c2ccc(F)cc2)c(=O)c1C(=O)Nc1ccc(Oc2cc(-c3cn(C)cn3)cn3nccc23)cc1 [Example 118, 4-Ethoxy-1-(4-fluoro-phenyl)-2-oxo-1,2-dihydro-pyridine-3-carboxylic acid {4-[6-(1-methyl-1H-imidazol-4-yl)-pyrazolo[1,5-a]pyridin-4-yloxy]-phenyl}-amide]"
8,< 10 nM,"CCCCCn1cc(C(=O)Nc2ccc(Oc3cc(-c4cn(C)cn4)cn4nccc34)c(F)c2)c(=O)n(-c2ccc(F)cc2)c1=O [Example 123, 3-(4-Fluoro-phenyl)-2,4-dioxo-1-pentyl-1,2,3,4-tetrahydro-pyrimidine-5-carboxylic acid{3-fluoro-4-[6-(1-methyl-1H-imidazol-4-yl)-pyrazolo[1,5-a]pyridin-4-yloxy]-phenyl}-amide]"
9,10 to 100 nM,"CCn1cc(C(=O)Nc2ccc(Oc3cc(-c4ncccn4)cn4nccc34)c(F)c2)c(=O)n(-c2ccc(F)cc2)c1=O [Example 132, 1-Ethyl-3-(4-fluoro-phenyl)-2,4-dioxo-1,2,3,4-tetrahydro-pyrimidine-5-carboxylic acid [3-fluoro-4-(6-pyrimidin-2-yl-pyrazolo[1,5-a]pyridin-4-yloxy)-phenyl]-amide]"
10,10 to 100 nM,"CC(C)n1cc(C(=O)Nc2ccc(Oc3cc(-c4ncccn4)cn4nccc34)c(F)c2)c(=O)n(-c2ccc(F)cc2)c1=O [Example 133, 3-(4-Fluoro-phenyl)-1-isopropyl-2,4-dioxo-1,2,3,4-tetrahydro-pyrimidine-5-carboxylic acid[3-fluoro-4-(6-pyrimidin-2-yl-pyrazolo[1,5-a]pyridin-4-yloxy)-phenyl]-amide]"
11,10 to 100 nM,"CCn1cc(C(=O)Nc2ccc(Oc3cc(-c4cnccn4)cn4nccc34)c(F)c2)c(=O)n(-c2ccc(F)cc2)c1=O [Example 134, 1-Ethyl-3-(4-fluoro-phenyl)-2,4-dioxo-1,2,3,4-tetrahydro-pyrimidine-5-carboxylic acid[3-fluoro-4-(6-pyrazin-2-yl-pyrazolo[1,5-a]pyridin-4-yloxy)-phenyl]-amide]"

# Same assay, conditions: read-out: c-MET IC50
row,SMILES,IC50
1,"CC(C)n1cc(C(=O)Nc2ccc(Oc3cc(-c4ncco4)cn4nccc34)c(F)c2)c(=O)n(-c2ccc(F)cc2)c1=O [Example 99, 3-(4-Fluoro-phenyl)-1-isopropyl-2,4-dioxo-1,2,3,4-tetrahydro-pyrimidine-5-carboxylic acid[3-fluoro-4-(6-oxazol-2-yl-pyrazolo[1,5-a]pyridin-4-yloxy)-phenyl]-amide]",< 10 nM
